From patent publication US11331290B2, “Niclosamide for the treatment of cancer metastasis” (Max-Delbrück-Centrum für Molekulare Medizin in der …, priority 2011, dated 2022)

How the values were obtained:
HCT116-S100A4 cells = experiment: Wound healing assay (directed migration); assay type: cell-based, human; details: 1 μM daily, 4 days
Protocol: (§1) For wound healing assay HCT116, SW620, LS174T, SW480 and DLD-1 cells were grown to form 60% confluent monolayers of cells in which a wound of about 300 μm width was inflicted with a sterile pipette tip. The medium was exchanged to remove non-adherent cells and the wounded monolayer was treated with 1 μM niclosamide or the respective amount of DMSO every 24 hours for 4 consecutive days. The progress of wound closure was monitored with microphotographs of 10× magnification taken with the Leica DM IL light microscope (Leica Microsystems) on day 0 and day 4. The wound healing experiment was performed three independent times.
(§2) (A) Cell migration of HCT116-vector and HCT116-S100A4 cells exposed to niclosamide treatment. Cells were treated with 1 μM niclosamide for 24 hours and migration rates were measured with Boyden chamber assay. […] Cells were treated with 1 μM niclosamide for 24 hours and cell invasion was determined by Boyden chamber assay. (C) Directed migration of HCT116-vector and HCT116-S100A4 cells exposed to niclosamide treatment analyzed by wound healing assay. […] Cells were treated daily with 1 μM niclosamide and cell viability was determined with MTT assay. […] (F) Quantification of colonies formed. Number of colonies (of more than 4 cells) was counted and normalized to solvent-treated HCT116-vector cells. […]

HCT116-vector cells = experiment: Wound healing assay (directed migration); assay type: cell-based, human; details: 1 μM daily, 4 days
Protocol: as §1, §2

SMILES: O=C(Nc1ccc([N+](=O)[O-])cc1Cl)c1cc(Cl)ccc1O [niclosamide, 2′,5-dichloro-4′-nitrosalicylanilide]
- wound closure (HCT116-S100A4 cells): able to migrate into the wound and close the gap
- wound closure (HCT116-vector cells): impaired
